This is an account of results in ChEMBL document CHEMBL6177942, “Recent advances of selenized tubulin inhibitors in cancer therapy” (Bioorg Med Chem Lett, 2025).

One data set concerns SGC-7901. Kind of data set: Antiproliferative activity against human SGC-7901 cells assessed as reduction in cell viability by MTT assay. The class given is functional, cell-based. (Formazan colour is commonly taken as a measure of viable cells.)
A further data set has as its system KB. Kind of data set: Antiproliferative activity against human KB cells assessed as reduction in cell viability by MTT assay. The class given is functional, cell-based.
In a further data set the test system is HT-1080. As to the kind of experiment: Antiproliferative activity against human HT-1080 cells assessed as reduction in cell viability by MTT assay. The class given is functional, cell-based.
In data set [1] the test system is RKO. Kind of data set: Antiproliferative activity against human RKO cells assessed as reduction in cell growth measured for 48 hrs by MTT assay. The class given is functional, cell-based. The following applies: pooled result: one value given for 6 cell lines, strains, targets or settings.
The test system of a further data set is A549. Kind of data set: Antiproliferative activity against human A549 cells assessed as reduction in cell viability incubated for 48 hrs by MTT assay. The class given is functional, cell-based. The following applies: A549, 48 h.
The test system of data set [2] is MDA-MB-231. As to the kind of experiment: Antiproliferative activity against human MDA-MB-231 cells assessed as reduction in cell viability incubated for 48 hrs by MTT assay. The class given is functional, cell-based. Conditions: MDA-MB-231, 48 h.
Another data set concerns HepG2. Kind of data set: Antiproliferative activity against human HepG2 cells assessed as reduction in cell viability incubated for 48 hrs by MTT assay. The class given is functional, cell-based. Conditions: HepG2, 48 h.
Data set [3] deals with RKO. Kind of data set: Antiproliferative activity against human RKO cells assessed as reduction in cell viability incubated for 48 hrs by MTT assay. The class given is functional, cell-based.
Another data set relates to HCT-116. Kind of data set: Antiproliferative activity against human HCT-116 cells assessed as reduction in cell viability incubated for 48 hrs by MTT assay. The class given is functional, cell-based. The following applies: HCT-116, 48 h.
Another data set has as its system HeLa. Kind of data set: Antiproliferative activity against human HeLa cells assessed as reduction in cell viability incubated for 48 hrs by MTT assay. The class given is functional, cell-based.
The test system of the next data set is MCF7. Kind of data set: Antiproliferative activity against human MCF7 cells assessed as reduction in cell viability incubated for 72 hrs by MTT assay. The class given is functional, cell-based. Conditions: MCF7, 72 h.
Data set [4] has as its system MDA-MB-231. As to the kind of experiment: Antiproliferative activity against human MDA-MB-231 cells assessed as reduction in cell viability incubated for 72 hrs by MTT assay. Conditions: MDA-MB-231, 72 h. The class given is functional, cell-based.
Data set [5] in a line: Antiproliferative activity against human MCF-10A cells assessed as reduction in cell viability incubated for 72 hrs by MTT assay. The class given is toxicity, cell-based.
The next data set relates to NCI/ADR-RES. Kind of data set: Antiproliferative activity against human MCF7ADR cells assessed as reduction in cell viability incubated for 72 hrs by MTT assay. The class given is functional, cell-based.

As a reminder, the IC50 is the concentration needed to halve the response being measured. For `COc1ccc(/C=C\c2cc(OC)c(OC)c(OC)c2)cc1O` [COMBRETASTATIN A4], the half-maximal inhibitory concentration (IC50) amounted to 11 nM in the data set on SGC-7901, 4 nM in the data set on KB and 11 nM with HT-1080.

As for `CN(c1ccc([Se]C#N)cc1)c1nc(Cl)nc2ccccc12`, in the data set with RKO [1], the IC50 turned out to be 3.39 nM.

`COc1cc(C(=O)/C=C/c2c[nH]c3ccccc23)cc([Se]C)c1OC`: the IC50 in the data set with A549, in the data set with MDA-MB-231 [2], in the data set with HepG2, in the data set on RKO [3], with HCT-116 and in the data set with HeLa was 29 nM each time.

Take `Cc1cc([Se]C#N)ccc1N(C)c1nc(Cl)nc2ccccc12`: the IC50 with RKO [1] was determined as 37.9 nM.

For `COc1nc(N(C)c2ccc([Se]C)cc2)c2ccccc2n1`, in the data set on RKO [1], the IC50 was 4.78 nM.

For the compound `C[Se]c1ccc(N(C)c2nc(=O)[nH]c3ccccc23)cc1`, the 50% inhibitory concentration (IC50) in the data set on RKO [1] turned out to be 17.4 nM.

As to `COc1ccc([Se](=O)c2cc(OC)c(OC)c(OC)c2)cc1O` (stereo not given), the figures for the 50% inhibitory concentration (IC50) in the data set on MCF7, in the data set on MDA-MB-231 [4] and with NCI/ADR-RES were 25 nM, 6.3 nM and 26.3 nM, respectively. Moreover, the IC50 at 72 h in data set [5] was determined as 131 nM.

For `Cc1cc(N(C)c2nc(Cl)nc3ccccc23)ccc1[Se]C#N`, the half-maximal inhibitory concentration (IC50) in the data set with RKO [1] came out at 6.01 nM.

`COc1ccc([Se]c2c(C)[nH]c3c(OC)c(OC)c(OC)cc23)cc1O`: the 50% inhibitory concentration (IC50) was 54 nM in the data set with SGC-7901, 25 nM in the data set with KB and 14 nM in the data set on HT-1080.

`COc1ccc([Se]c2c[nH]c3c(OC)c(OC)c(OC)cc23)cc1O`: the values for the 50% inhibitory concentration (IC50) in the data set with SGC-7901, in the data set on KB and with HT-1080 were 220 nM, 640 nM and 1000 nM, respectively.

Take `C[Se]c1ccc(N(C)c2nc(Cl)nc3ccccc23)cc1`: the half-inhibitory concentration (IC50) in the data set on RKO [1] came out at 2.77 nM.
